Test system: gray mold fungus (Botrytis cinerea)
Test: Cucumber leaf disk preventive test against gray mold
Type: in vivo
Conditions: single compound, 15° C., four days
Protocol: True leaf of cucumber is punched out with cork borer to 13 mm in diameter to prepare a leaf disk. In 24 well microwell plate that is dispensed with 1 ml 0.8% water agar, the leaf disk is placed such that the upper side of the leaf is in an upward direction. Thereto is added 20 micro liter a testing solution prepared by mixing a dimethyl sulfoxide solution of the present compound (racemate) and a dimethyl sulfoxide solution of trifloxystrobin or pyribencarb to a predetermined concentration to treat the leaf disk. After confirming that the testing medical solution is dried, conidium of gray mold fungus (Botrytis cinerea) is suspended into potato dextrose broth (DIFCO) in a density of about 10^5 conidium/mL and is then subjected to a spray inoculation. After leaving to stand the leaf disk in a growth chamber set up at 15° C. for four days, an onset area on the leaf is measured and then calculated an onset area rate (hereinafter, referred to as an onset area rate of treated group). The same operation is carried out with 20 micro liter water instead of 20 micro liter a testing medicine solution to calculate an onset area rate (hereinafter, referred to an onset area rate of non-treated group). A preventive value is calculated from the above onset area rate of treated group and the onset area rate of non-treated group by the following equation: Preventive value (%)=100×(A−B)/A […] The same operations as described in Test Example 1 are carried out with azoxystrobin, dimoxystrobin, fluoxastrobin, kresoxim-methyl, metominostrobin, orysastrobin, picoxystrobin or pyraclostrobin instead of trifloxystrobin or pyribencarb, so as to calculate respective preventive values. Also for comparison, the same operations as described in Test Example 1 are carried out with the exception that the testing medicine solution is substituted with a predetermined concentration of each dimethyl sulfoxide solution of the present compound (racemate), azoxystrobin, dimoxystrobin, fluoxastrobin, kresoxim-methyl, metominostrobin, orysastrobin, picoxystrobin or pyraclostrobin, so as to calculate respective preventive values. For comparison, the same operations as described in Test Example 1 are carried out with the exception that the testing medicine solution is substituted with a predetermined concentration of each dimethyl sulfoxide solution of trifloxystrobin or pyribencarb, so as to calculate respective preventive values.

[1] = treatment concentration 0.5 ppm
[2] = treatment concentration 5.0 ppm

| SMILES | preventive value (%) [1] [%] | preventive value (%) [2] [%] |
| --- | --- | --- |
| COC(=O)NCc1cc(/C(C)=N/OCc2cccc(C)n2)ccc1Cl [pyribencarb] | 42 | 58 |
| CNC(=O)/C(=N/OC)c1ccccc1CO/N=C(C)/C(=N/OC)C(/C)=N/OC [orysastrobin] | 10 | 25 |
| CNC(=O)/C(=N/OC)c1ccccc1COc1cc(C)ccc1C [dimoxystrobin] | 48 | 57 |
| CO/N=C(/C1=NOCCO1)c1ccccc1Oc1ncnc(Oc2ccccc2Cl)c1F [fluoxastrobin] | 43 | 52 |
| CO/C=C(/C(=O)OC)c1ccccc1COc1cccc(C(F)(F)F)n1 [picoxystrobin] | 10 | 30 |
| CO/N=C(/C(=O)OC)c1ccccc1COc1ccccc1C [kresoxim-methyl] | 47 | 52 |
| CNC(=O)/C(=N/OC)c1ccccc1Oc1ccccc1 [metominostrobin] | 10 | 20 |
| CON=C(C(=O)OC)c1ccccc1CON=C(C)c1cccc(C(F)(F)F)c1 [trifloxystrobin] | 10 | 20 |
| CO/C=C(/C(=O)OC)c1ccccc1Oc1cc(Oc2ccccc2C#N)ncn1 [azoxystrobin] | 43 | 53 |
| COC(=O)N(OC)c1ccccc1COc1ccn(-c2ccc(Cl)cc2)n1 [pyraclostrobin] | 15 | 35 |

Reference: patent US20130045969A1, “PLANT DISEASE CONTROLLING COMPOSITION AND METHOD FOR CONTROLLING PLANT DISEASE” (SUMITOMO CHEMICAL COMPANY, LIMITED, priority 2010, published 2013)
